19 compounds from ChEMBL document CHEMBL3600348, “Synthesis of novel derivatives of oxindole, their urease inhibition and molecular docking studies” (Bioorg Med Chem Lett, 2015) can be followed below.

SMILES strings stand for the structures.

The target of this assay is Urease (Canavalia ensiformis, UniProt P07374). The assay can be described thus: Inhibition of jack bean urease using urea as substrate assessed as ammonia production after 15 mins by Weatherburn assay.
Sequence of Urease (P07374 whole entry): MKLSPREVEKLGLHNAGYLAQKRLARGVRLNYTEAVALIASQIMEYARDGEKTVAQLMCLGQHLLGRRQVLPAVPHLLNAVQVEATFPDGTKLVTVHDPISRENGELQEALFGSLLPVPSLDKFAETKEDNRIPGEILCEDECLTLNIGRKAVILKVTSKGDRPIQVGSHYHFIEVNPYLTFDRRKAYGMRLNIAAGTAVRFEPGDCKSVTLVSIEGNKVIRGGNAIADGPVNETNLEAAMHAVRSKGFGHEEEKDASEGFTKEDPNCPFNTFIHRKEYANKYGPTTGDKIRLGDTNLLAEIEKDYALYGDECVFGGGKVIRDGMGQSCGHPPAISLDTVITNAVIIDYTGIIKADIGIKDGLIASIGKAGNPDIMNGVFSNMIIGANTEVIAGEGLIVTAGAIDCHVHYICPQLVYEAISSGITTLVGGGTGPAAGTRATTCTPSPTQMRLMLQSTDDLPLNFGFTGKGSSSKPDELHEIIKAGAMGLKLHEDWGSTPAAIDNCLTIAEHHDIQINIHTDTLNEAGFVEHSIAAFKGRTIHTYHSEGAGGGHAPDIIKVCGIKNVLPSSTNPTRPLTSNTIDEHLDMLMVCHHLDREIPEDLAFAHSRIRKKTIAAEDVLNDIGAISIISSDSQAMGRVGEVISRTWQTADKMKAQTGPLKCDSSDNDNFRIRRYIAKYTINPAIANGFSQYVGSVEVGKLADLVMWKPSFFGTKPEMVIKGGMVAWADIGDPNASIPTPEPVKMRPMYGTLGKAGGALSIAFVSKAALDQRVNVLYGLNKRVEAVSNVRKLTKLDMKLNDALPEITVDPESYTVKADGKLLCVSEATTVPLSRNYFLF
For orientation: IC50 means the midpoint of a concentration-inhibition curve. `O=C1Nc2ccc(Cl)cc2/C1=C\c1ccc(C(=O)N/N=C/c2c(O)cc(O)cc2O)cc1`: the IC50 turned out to be 13 µM.

Regarding `C/C(=N\NC(=O)c1ccc(/C=C2/C(=O)Nc3ccc(Cl)cc32)cc1)c1c(O)cc(O)cc1O`, the IC50 turned out to be 35.4 µM.

Consider `O=C1Nc2ccc(Cl)cc2/C1=C\c1ccc(C(=O)N/N=C/c2ccc(O)cc2O)cc1`, for which the half-maximal inhibitory concentration (IC50) was 42.9 µM.

On to `O=C1Nc2ccc(Cl)cc2/C1=C\c1ccc(C(=O)N/N=C/c2cc(O)ccc2O)cc1`, for which the IC50 worked out at 53.2 µM.

With `O=C1Nc2ccc(Cl)cc2/C1=C\c1ccc(C(=O)N/N=C/c2cc(O)c(O)cc2O)cc1`, the IC50 was 126 µM.

Take `O=C1Nc2ccc(Cl)cc2/C1=C\c1ccc(C(=O)N/N=C/c2ccc(O)c(O)c2)cc1`: the IC50 is 70.8 µM.

In the case of `O=C1Nc2ccc(Cl)cc2/C1=C\c1ccc(C(=O)N/N=C/c2cc(O)cc(O)c2)cc1`, the IC50 worked out at 19.2 µM.

For `O=C1Nc2ccc(Cl)cc2/C1=C\c1ccc(C(=O)N/N=C/c2cccc(O)c2O)cc1`, the IC50 stood at 109 µM.

Take `O=C1Nc2ccc(Cl)cc2/C1=C\c1ccc(C(=O)N/N=C/c2cccc(O)c2)cc1`: the IC50 stood at 102 µM.

As to `O=C1Nc2ccc(Cl)cc2/C1=C\c1ccc(C(=O)N/N=C/c2ccc(O)cc2)cc1`, the IC50 was 84.8 µM.

Take `O=C1Nc2ccc(Cl)cc2/C1=C\c1ccc(C(=O)N/N=C/c2ccccc2O)cc1`: the IC50 amounted to 120 µM.

Take `COc1ccc(/C=N/NC(=O)c2ccc(/C=C3/C(=O)Nc4ccc(Cl)cc43)cc2)cc1`: the 50% inhibitory concentration (IC50) came out at 144 µM.

For `O=C1Nc2ccc(Cl)cc2/C1=C\c1ccc(C(=O)N/N=C/c2ccc(Cl)cc2)cc1`, the IC50 came out at 111 µM.

Turning to `C/C(=N\NC(=O)c1ccc(/C=C2/C(=O)Nc3ccc(Cl)cc32)cc1)c1ccccc1O`, the IC50 was 71.8 µM.

As to `COc1ccc(/C=N/NC(=O)c2ccc(/C=C3/C(=O)Nc4ccc(Cl)cc43)cc2)c(O)c1`, the IC50 came to 145 µM.

Turning to `COc1ccc(O)c(/C=N/NC(=O)c2ccc(/C=C3/C(=O)Nc4ccc(Cl)cc43)cc2)c1`, the IC50 was determined as 82 µM.

Consider `O=C1Nc2ccc(Cl)cc2/C1=C\c1ccc(C(=O)N/N=C/c2ccc([N+](=O)[O-])cc2)cc1`, for which the IC50 came out at 92.4 µM.

For the compound `O=C1Nc2ccc(Cl)cc2/C1=C\c1ccc(C(=O)N/N=C/c2cccc([N+](=O)[O-])c2)cc1`, the IC50 came to 148 µM.

Regarding `CC(=O)NO` [ACETOHYDROXAMIC ACID], the IC50 amounted to 42 µM.
